Data on 25 compounds can be found in PubChem BioAssay AID330 (DTP/NCI, 2004).

Toxic doses and inconclusive results are not listed.

In this assay the test system is P388 leukemia ip, CD2F1 mice, survival T/C. As to the kind of experiment: NCI In Vivo Anticancer Drug Screen. Data for tumor model P388 Leukemia (intraperitoneal) in CD2F1 (CDF1) mice. Conditions: endpoint: median survival time, higher = longer survival. In outline:
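Mice carrying the transplanted tumor received test compound or vehicle. Survival was recorded in each group, and the value is the treated-group measurement divided by that of the vehicle-treated control group.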

Where [1] appears, read: dose: 50.0 mg/kg/injection, schedule: Q01DX005 (ip), vehicle: saline with Tween-80.
[2] abbreviates: dose: 100.0 mg/kg/injection, schedule: Q01DX005 (ip), vehicle: saline with Tween-80.
The mark [3] stands for this setting: dose: 200.0 mg/kg/injection, schedule: Q01DX005 (ip), vehicle: saline with Tween-80.
The mark [4] stands for this setting: dose: 50.0 mg/kg/injection, schedule: Q01DX009 (ip), vehicle: Klucel (hydroxypropylcellulose) (HPC).
Where [5] appears, read: dose: 100.0 mg/kg/injection, schedule: Q01DX009 (ip), vehicle: Klucel (hydroxypropylcellulose) (HPC).
Setting [6] is: dose: 200.0 mg/kg/injection, schedule: Q01DX009 (ip), vehicle: Klucel (hydroxypropylcellulose) (HPC).
Setting [7] is: dose: 60.0 mg/kg/injection, schedule: Q01DX005 (ip), vehicle: saline with Tween-80.
Setting [8] is: dose: 120.0 mg/kg/injection, schedule: Q01DX005 (ip), vehicle: saline with Tween-80.
Setting [9] is: dose: 50.0 mg/kg/injection, schedule: Q01DX005 (ip), vehicle: Klucel (hydroxypropylcellulose) (HPC).
The mark [10] stands for this setting: dose: 100.0 mg/kg/injection, schedule: Q01DX005 (ip), vehicle: Klucel (hydroxypropylcellulose) (HPC).
Setting [11] is: dose: 200.0 mg/kg/injection, schedule: Q01DX005 (ip), vehicle: Klucel (hydroxypropylcellulose) (HPC).
Setting [12] is: dose: 50.0 mg/kg/injection, schedule: Q01DX005 (ip), vehicle: saline.
The mark [13] stands for this setting: dose: 100.0 mg/kg/injection, schedule: Q01DX005 (ip), vehicle: saline.
[14] abbreviates: dose: 200.0 mg/kg/injection, schedule: Q01DX005 (ip), vehicle: saline.

For `O=C(O)C1CSC(c2ccc(O)cc2)N1` (stereo not given), the T/C by setting is: (dose: 50.0 mg/kg/injection, schedule: Q01DX009 (ip), vehicle: saline) 87 % of control; (dose: 100.0 mg/kg/injection, schedule: Q01DX009 (ip), vehicle: saline) 88 % of control; (dose: 200.0 mg/kg/injection, schedule: Q01DX009 (ip), vehicle: saline) 90 % of control.
With `CCCCCCCCCCCn1nnnc1N`, the T/C is 102 % of control under setting [1], 93 % of control under setting [2] and 96 % of control under setting [3].
In the case of `CC(=O)CC(c1ccc(Cl)cc1)C(C#N)c1ccccc1` (stereo not given), the T/C is 89 % of control under setting [4], 91 % of control under setting [5] and 86 % of control under setting [6].
For the compound `Nc1ccccc1Nc1ccncc1`, the T/C runs as follows: (dose: 25.0 mg/kg/injection, schedule: Q01DX009 (ip), vehicle: suspension in saline) 97 % of control; (dose: 50.0 mg/kg/injection, schedule: Q01DX009 (ip), vehicle: suspension in saline) 100 % of control; (dose: 100.0 mg/kg/injection, schedule: Q01DX009 (ip), vehicle: suspension in saline) 97 % of control.
On to `CN1C(c2ccccc2)=C(C#N)C(=O)CC(c2cccs2)N1C` (stereo not given), for which the T/C runs as follows: under setting [7], 96 % of control; under setting [8], 99 % of control; (dose: 240.0 mg/kg/injection, schedule: Q01DX005 (ip), vehicle: saline with Tween-80) 86 % of control.
As to `CC1COC2(CCC(=CBr)CC2)O1` (stereo not given), the T/C by setting is: (dose: 100.0 mg/kg/injection, schedule: Q01DX001 (ip), vehicle: Klucel (hydroxypropylcellulose) (HPC)) 96 % of control; (dose: 200.0 mg/kg/injection, schedule: Q01DX001 (ip), vehicle: Klucel (hydroxypropylcellulose) (HPC)) 107 % of control; (dose: 400.0 mg/kg/injection, schedule: Q01DX001 (ip), vehicle: Klucel (hydroxypropylcellulose) (HPC)) 100 % of control.
For the compound `Cc1cc(=O)oc2cc(OC(=O)C(CCCCN)NC(=O)OCc3ccccc3)ccc12` (stereo not given), the T/C is, setting by setting: (dose: 6.25 mg/kg/injection, schedule: Q01DX009 (ip), vehicle: other) 101 % of control; (dose: 12.5 mg/kg/injection, schedule: Q01DX009 (ip), vehicle: other) 99 % of control; (dose: 25.0 mg/kg/injection, schedule: Q01DX009 (ip), vehicle: other) 121 % of control; (dose: 50.0 mg/kg/injection, schedule: Q01DX009 (ip), vehicle: other) 114 % of control; (dose: 100.0 mg/kg/injection, schedule: Q01DX009 (ip), vehicle: other) 117 % of control.
As for `NC1(C(=O)O)CCSCC1`, the T/C by setting is: under setting [9], 101 % of control; under setting [10], 102 % of control; under setting [11], 90 % of control.
Consider `CCOc1c(N=Nc2ccc(Cl)cc2Cl)c(C)nn1C(N)=S`, for which the T/C (dose: 15.0 mg/kg/injection, schedule: Q01DX005 (ip), vehicle: Klucel (hydroxypropylcellulose) (HPC)) was 95 % of control and the T/C (dose: 30.0 mg/kg/injection, schedule: Q01DX005 (ip), vehicle: Klucel (hydroxypropylcellulose) (HPC)) was 90 % of control.
With `O=S(=O)(O)Nc1ccccc1`, the T/C was 100 % of control (dose: 12.5 mg/kg/injection, schedule: Q01DX009 (ip), vehicle: water); 104 % of control (dose: 25.0 mg/kg/injection, schedule: Q01DX009 (ip), vehicle: water); 99 % of control (dose: 50.0 mg/kg/injection, schedule: Q01DX009 (ip), vehicle: water); 100 % of control (dose: 100.0 mg/kg/injection, schedule: Q01DX009 (ip), vehicle: water); 101 % of control (dose: 200.0 mg/kg/injection, schedule: Q01DX009 (ip), vehicle: water).
On to `COc1ccc(C(=O)CCN(C)C)c2ccccc12`, for which the T/C is 102 % of control under setting [12], 100 % of control under setting [13] and 93 % of control under setting [14].
Turning to `COC(=O)c1ccc(SCCC(=O)CNc2nc(N)nc(N)c2[N+](=O)[O-])cc1`, the T/C by setting is: under setting [4], 96 % of control; under setting [5], 93 % of control; under setting [6], 96 % of control.
In the case of `CC(C)(Cc1nocc1C(C)(C)CC#N)c1cc(CC(C)(C)C2(C)OCCO2)no1`, the T/C by setting is: under setting [7], 95 % of control; under setting [8], 88 % of control.
In the case of `CCOC(=O)c1[nH]c(=O)[nH]c(=O)c1CBr`, the T/C runs as follows: (dose: 12.5 mg/kg/injection, schedule: Q01DX009 (ip), vehicle: distilled water + Tween-80) 98 % of control; (dose: 25.0 mg/kg/injection, schedule: Q01DX009 (ip), vehicle: distilled water + Tween-80) 98 % of control; (dose: 50.0 mg/kg/injection, schedule: Q01DX009 (ip), vehicle: distilled water + Tween-80) 98 % of control; (dose: 100.0 mg/kg/injection, schedule: Q01DX009 (ip), vehicle: distilled water + Tween-80) 98 % of control.
On to `Cc1c(O)/c(=C\O)c2nc3c(=O)ccc(C(=O)NCCN(C)C)c3[nH]c2c1=O`, for which the T/C is, setting by setting: (dose: 6.25 mg/kg/injection, schedule: Q01DX005 (ip), vehicle: other) 117 % of control; (dose: 7.5 mg/kg/injection, schedule: Q03HX015 (ip), vehicle: water) 160 % of control; (dose: 12.5 mg/kg/injection, schedule: Q01DX005 (ip), vehicle: other) 120 % of control; (dose: 15.0 mg/kg/injection, schedule: Q03HX015 (ip), vehicle: water) 177 % of control; (dose: 50.0 mg/kg/injection, schedule: Q01DX005 (ip), vehicle: other) 123 % of control.
For `Cc1nc(Nc2c(C)cccc2C)c2c(C)c(Cc3ccccc3)[nH]c2n1`, the T/C runs as follows: under setting [9], 89 % of control; under setting [10], 89 % of control; under setting [11], 104 % of control.
Regarding `c1ccc2c(c1)Oc1cccc3cccc-2c13`, the T/C by setting is: under setting [9], 97 % of control; under setting [10], 101 % of control; under setting [11], 101 % of control.
As to `O=C1NC(=O)C2C3C=CC(C12)C1C2CCOC2C31` (stereo not given), the T/C is 104 % of control under setting [1], 100 % of control under setting [2] and 99 % of control under setting [3].
On to `COC(=O)CCSCc1ccccc1`, for which the T/C is, setting by setting: (dose: 60.0 mg/kg/injection, schedule: Q01DX005 (ip), vehicle: saline) 100 % of control; (dose: 120.0 mg/kg/injection, schedule: Q01DX005 (ip), vehicle: saline) 100 % of control; (dose: 240.0 mg/kg/injection, schedule: Q01DX005 (ip), vehicle: saline) 109 % of control.
Regarding `O=c1[nH]c2n[nH]c(=S)n2c2c1CCC2`, the T/C (dose: 50.0 mg/kg/injection, schedule: Q04DX002 (ip), vehicle: saline with Tween-80) is 99 % of control; the T/C (dose: 100.0 mg/kg/injection, schedule: Q04DX002 (ip), vehicle: saline with Tween-80) is 97 % of control; the T/C (dose: 200.0 mg/kg/injection, schedule: Q04DX002 (ip), vehicle: saline with Tween-80) is 99 % of control.
As to `Cn1cnnc1[N+](=O)[O-]`, the T/C is, setting by setting: (dose: 25.0 mg/kg/injection, schedule: Q04DX003 (ip), vehicle: saline sonified) 100 % of control; (dose: 50.0 mg/kg/injection, schedule: Q04DX003 (ip), vehicle: saline sonified) 95 % of control; (dose: 100.0 mg/kg/injection, schedule: Q04DX003 (ip), vehicle: saline sonified) 90 % of control.
`CC1(C)CC(NC(=O)C(C)(C)Oc2ccc(Cl)cc2)CC(C)(C)N1`: the T/C by setting is: under setting [1], 107 % of control; under setting [2], 100 % of control; under setting [3], 98 % of control.
As to `O=C(CCCCC(=O)N1CCOCC1)N1CCOCC1`, the T/C was 100 % of control under setting [12], 101 % of control under setting [13] and 101 % of control under setting [14].
On to `O=S1(=O)CCN(C2CC2)CC1`, for which the T/C (dose: 12.5 mg/kg/injection, schedule: Q01DX009 (ip), vehicle: Klucel (hydroxypropylcellulose) (HPC)) is 98 % of control; the T/C (dose: 25.0 mg/kg/injection, schedule: Q01DX009 (ip), vehicle: Klucel (hydroxypropylcellulose) (HPC)) is 100 % of control; the T/C under setting [4] is 111 % of control.
As for `O=c1cc2[nH]c3ccccc3c(=O)n2[nH]1`, the T/C is, setting by setting: under setting [9], 98 % of control; under setting [10], 97 % of control; under setting [11], 95 % of control.
